Paper PMC10699557, “A recombinant approach for stapled peptide discovery yields inhibitors of the RAD51 recombinase” (Chemical Science, 2023)
Numbered stars: 1 amine (or outer) side, 2 acyl side, 3 side chain; on linkers, the order of the positions; unused ones are H or OH. Bridge positions count the residues as written; N and C are the ends. Peptide text beside a SMILES is read from it. X1 = Nc1nc(CC[*:1])cc(CC[*:2])n1

What was measured:
[1] = system: RAD51:dT60 nucleoprotein filament (full-length human RAD51); test: Electrophoretic mobility shift assay (EMSA) of nucleoprotein filament disruption; type: biochemical; conditions: 5 μM full-length human RAD51, 100 nM FAM-dT60, varying peptide concentrations; 50 mM HEPES pH 7.4, 1 mM ATP
Protocol: We evaluated the effect of stapled peptides SP2, SP24 and SP30 on the nucleoprotein filament using electrophoretic mobility shift assay (EMSA, Fig. 3D). A fluorescently labelled dT60 oligonucleotide was incubated with full-length RAD51, after which the peptides were added at different concentrations before separating the products on a polyacrylamide gel.
(§1) Isothermal titration calorimetry
(§2) Peptides were resuspended in MilliQ water to 10 times the desired final concentration.
This was then diluted 10x with the ITC buffer to obtain the final titrant solution (20 mM CHES pH 9.5, 150 mM NaCl, 0.1% Tween-20). HumRadA22 was buffer-exchanged on a NAP-5 desalting column (Cytiva) into ITC buffer and protein concentration was adjusted to 10:9 of the desired final value. One ninth volume of MilliQ water was added to the solution to bring the protein concentration to the desired final value, while maintaining identical buffer:MilliQ volume proportions in both the syringe and the cell. ITC was carried out using a Microcal ITC200 or Malvern PEAQ ITC instruments at 25°C with a 5.00 μCal reference power DP value, stirring speed of 500-750 rpm, 2 sec filter period. Injection spacing, speed and volume, cell/syringe concentrations as well as the number of injections were adjusted for each peptide and its binding properties. ITC data were fitted using a single-site binding model using the Microcal ITC data analysis program in the Origin 7.0 package. Data points affected by baseline spikes were omitted from the analysis.
Circular dichroism spectroscopy
(§3) Dried peptides were dissolved in MilliQ water to 0.3 mg/ml, and then two-fold diluted in 20 mM sodium phosphate, pH 7.4, giving a final solution of 0.15 mg/ml peptide in 10 mM sodium phosphate. CD spectra of selected peptides were recorded on an AVIV 410 circular dichroism spectropolarimeter using a 1 mm path length quartz cuvette. […]
(§4) The ability of linear and stapled BRC repeat peptides to dissociate RAD51-ssDNA nucleofilament was evaluated using an electrophoretic mobility shift assay (EMSA). […]

[2] = molecular target: HumRadA22 (Pyrococcus furiosus, UniProt O74036); test: Isothermal titration calorimetry (ITC) of peptide binding; set-up: species or system archaeal RadA mutant with human Rad51 surface residues; conditions: Fig. S3; stapled Arg9-fused peptide
Protocol: We then evaluated the binding of free peptides to HumRadA22 using FP competition assay and isothermal titration calorimetry (Table 1 and Fig. 3B and C). […] All three peptides SP2, SP24 and SP30 bound with similar low-nanomolar affinities in ITC, and the binding appears to be slightly weaker relative to the linear BRC8-2 template (Fig. 3C).
as §1, §2
This was then diluted 10x with the ITC buffer to obtain the final titrant solution (20 mM CHES pH 9.5, 150 mM NaCl, 0.1% Tween-20). HumRadA22 was buffer-exchanged on a NAP-5 desalting column (Cytiva) into ITC buffer and protein concentration was adjusted to 10:9 of the desired final value. […]
as §3, §4

SMILES | Depolymerisation of RAD51 from single-stranded DNA (EMSA) [1] | Binding affinity towards HumRadA22 by ITC (in words) [2]
CC(C)C[C@@H]1NC(=O)[C@H](CCCCN)NC(=O)[C@H](CCCCN)NC(=O)CNC(=O)[C@H](CO)NC(=O)[C@H](C)NC(=O)[C@H]([C@@H](C)O)NC(=O)[C@H](CO)NC(=O)[C@H](Cc2ccccc2)NC(=O)CNC(=O)[C@H](CO)NC(=O)[C@@H](NC(=O)CN)CSCCc2cc(nc(N)n2)CCSC[C@@H](C(=O)N[C@@H](CCC(N)=O)C(=O)N[C@@H](CCCCN)C(=O)N[C@@H](C)C(=O)N[C@H](C(=O)N[C@@H](CCCCN)C(=O)N[C@@H](CC(C)C)C(=O)N[C@@H](Cc2ccccc2)C(=O)N[C@@H](CO)C(=O)NCC(=O)O)C(C)C)NC(=O)[C@H](C)NC(=O)[C@H](CCC(N)=O)NC(=O)[C@H]([C@@H](C)O)NC(=O)[C@H](CO)NC(=O)[C@H](C(C)C)NC(=O)[C@H](CC(N)=O)NC1=O [SP30] (H-GCSGFSTASGKKLNVSTQACQKAVKLFSG-OH; linker 2-20 via X1) | depolymerise RAD51 from single-stranded DNA to similar extent | 
CC(C)C[C@@H]1NC(=O)[C@H](CCCCN)NC(=O)[C@H](CCCCN)NC(=O)CNC(=O)[C@H](CO)NC(=O)[C@H](C)NC(=O)[C@H]([C@@H](C)O)NC(=O)[C@H](CO)NC(=O)[C@H](Cc2ccccc2)NC(=O)CNC(=O)[C@H](CO)NC(=O)[C@@H](NC(=O)CNC(=O)CNC(=O)[C@H](CCCNC(=N)N)NC(=O)[C@H](CCCNC(=N)N)NC(=O)[C@H](CCCNC(=N)N)NC(=O)[C@H](CCCNC(=N)N)NC(=O)[C@H](CCCNC(=N)N)NC(=O)[C@H](CCCNC(=N)N)NC(=O)[C@H](CCCNC(=N)N)NC(=O)[C@H](CCCNC(=N)N)NC(=O)[C@H](CCCNC(=N)N)NC(=O)CN)CSCCc2cc(nc(N)n2)CCSC[C@@H](C(=O)N[C@@H](CCC(N)=O)C(=O)N[C@@H](CCCCN)C(=O)N[C@@H](C)C(=O)N[C@H](C(=O)N[C@@H](CCCCN)C(=O)N[C@@H](CC(C)C)C(=O)N[C@@H](Cc2ccccc2)C(=O)N[C@@H](CO)C(=O)NCC(=O)O)C(C)C)NC(=O)[C@H](C)NC(=O)[C@H](CCC(N)=O)NC(=O)[C@H]([C@@H](C)O)NC(=O)[C@H](CO)NC(=O)[C@H](C(C)C)NC(=O)[C@H](CC(N)=O)NC1=O [SP31] (H-GRRRRRRRRRGGCSGFSTASGKKLNVSTQACQKAVKLFSG-OH; linker 13-31 via X1) |  | high affinity
